We go through three compounds from patent publication US20140243319A1, “TREATMENTS TARGETING GAMMA-SYNUCLEIN EXPRESSION LEVELS” (GEORGETOWN UNIVERSITY, priority 2011, published 2014).

Data set [1] relates to HCT 116. In words: MTT cell viability assay in HCT 116 cells. It counts as cell-based. The note with it: Homo sapiens, read-out: IC50 values of cell death.
The test system of data set [2] is HT-29. In words: MTT cell viability assay in HT-29 cells. Type of data set: cell-based. As to conditions: Homo sapiens, read-out: IC50 values of cell death. (In general: Tetrazolium dyes change colour on reduction, which living cells bring about.)
In data set [3] the test system is A549. The experiment in a line: MTT cell viability assay in A549 cells. It counts as cell-based. The note with it: Homo sapiens, read-out: IC50 values of cell death.
Data set [4] has as its system DU145. In words: MTT cell viability assay in DU145 cells. It counts as cell-based. As to conditions: Homo sapiens, DU-145, read-out: IC50 values of cell death.
Data set [5] concerns HeLa. The experiment in a line: MTT cell viability assay in HeLa cells. As to conditions: Homo sapiens, read-out: IC50 values of cell death. It counts as cell-based.
The subject of data set [6] is SK-BR-3. In words: MTT cell viability assay in SK-BR-3 cells. Type of data set: cell-based. The note with it: Homo sapiens, read-out: IC50 values of cell death.
Data set [7] concerns MD-MB-231. The experiment in a line: MTT cell viability assay in MD-MB-231 cells. It counts as cell-based. The note with it: read-out: IC50 values of cell death.
The subject of data set [8] is ASPC-1. In words: MTT cell viability assay in ASPC-1 pancreatic cancer cells. Type of data set: cell-based. As to conditions: Homo sapiens, ASPC1; ASPC-1 cells; read-out: IC50 values of cell death.
Data set [9] relates to Colo-357. In words: MTT cell viability assay in Colo-357 pancreatic cancer cells. It counts as cell-based. The note with it: Homo sapiens, COLO357; Colo-357 cells; read-out: IC50 values of cell death.
The test system of data set [10] is BxPC-3. The experiment in a line: MTT cell viability assay in BxPC-3 pancreatic cancer cells. It counts as cell-based. As to conditions: Homo sapiens; BxPC-3 cells; read-out: IC50 values of cell death.
The subject of data set [11] is γ-Syn. In words: Western blot of γ-Syn levels in T47D cells. It counts as cell-based. The note with it: for decrease of γ-Syn levels: 48 h pretreatment, Western blot. As to the method: Various cancer cell lines were tested for expression of γ-Syn by Western blots. (FIG. 4) Two breast carcinoma cell lines were tested for γ-Syn expression by Western blots, and human brain (hIFG) was used as a positive control.
On the technique in general: In western blotting, separated proteins are transferred to a membrane and probed.

In data set [12] the test system is WKY rats. In words: Depression model, behavior of WKY rats. Type of data set: in vivo, rat. The note with it: for mobility and climbing behaviors: WKY rats, chronic administration, FIG. 1.
In data set [13] the test system is γ-Syn. The experiment in a line: Western blot of γ-Syn protein in brain of WKY rats. Type of data set: in vivo, rat. The note with it: brains of WKY rats, FIG. 3. An excerpt: In brain, γ-Syn is expressed in presynaptic terminals of monoaminergic neurons, and our lab has shown that this protein can regulate the function of norepinephrine and serotonin transporters. Unlike α-Syn, whose role in neurodegenerative diseases such as Parkinson's disease is well established, a role for γ-Syn in neurodegeneration is not known. γ-Syn is overexpressed in the frontal cortex of the WKY, a rat model of depression. […] The ability of γ-Syn to bind tightly to MTs may be one mechanism by which its overexpression in carcinomas protects cells from the MT actions of chemotherapeutic agents, for example, taxol, nocodazole, vinblastine and colchicine.

Data set [14] concerns γ-Syn. In words: γ-Syn protein expression in selected γ-Syn expressing cells. Type of data set: cell-based. The note with it: 48 h. An excerpt:
Cells were selected that expressed γ-Syn. […] We next measured cell death by MTT assays and found a direct correlation between loss of γ-Syn protein expression and cell death.

In data set [15] the test system is cells that expressed γ-Syn. The experiment in a line: MTT cell death assay in cells that express γ-Syn. Type of data set: cell-based. The text has this: Cells were selected that expressed γ-Syn.
Data set [16] relates to cells that did not express any γ-Syn. In words: MTT cell death assay in cells that do not express γ-Syn. It counts as cell-based. As to conditions: cells without γ-Syn expression, 50 μM DMI.
For data set [17], the system named is PC cells. It counts as cell-based. As to conditions: DMI at clinically relevant concentrations.
For data set [18], the system named is γ-Syn. In words: γ-Syn expression in pancreatic cancer (PC) cells. It counts as cell-based. The note with it: clinically relevant concentrations.
The test system of data set [19] is WKY rats. As to conditions: rat depression model, Jeannotte et al. 2009; cited from earlier work.
Data set [20] has as its system γ-Syn. The note with it: rat depression model, Jeannotte et al. 2009; cited from earlier work.
Data set [21] deals with T47D cells. In words: MTT cell viability assay in T47D breast cancer cells.
The mark [22] stands for this setting: T47D cells, 48 h, 25 μM single agent, MTT.

The IC50 is the concentration needed to halve the response being measured. Broadly, the cell viability is a read-out of living cells in per cent, often relative to untreated cells. As to `CNCCCN1c2ccccc2CCc2ccccc21` [DMI, desipramine], the IC50 was 43 ± 3 µM in [1]; 38 µM in [2]; more than 50 µM in data set [3]; more than 50 µM in data set [4]; 43 µM in data set [5]; 40 µM in [6]. For the same compound, the IC50 is more than 50 µM in data set [7]; more than 50 µM in data set [8]; more than 50 µM in data set [9]; more than 50 µM in data set [10]; 35 µM in data set [21] (read-out: IC50 values of cell death, T47D cells). The “γ-Syn levels (in words)” value in data set [11] (10 μM and 50 μM) is “reduces γ-Syn levels”. For the same compound, the “decrease of γ-Syn levels” value is 40% in [11] (10 μM DMI) and 85% in data set [11] (50 μM DMI). Further, the depressive symptoms entry in data set [12] (WKY rat, chronic treatment for 2 weeks) is on record as “relief in the depressive symptoms”. Moreover, the “mobility and climbing behaviors” value in [12] was “improvements in mobility and climbing behaviors”. Moreover, the results for the “γ-Syn protein levels (Western blot)” value in data set [13] and in data set [13] (listed as desipramine) were “reduced levels of γ-Syn protein” and “reduced”, respectively. Moreover, in data set [14] (0-50 μM DMI), the “γ-Syn protein expression (in words)” value is “dose-dependent decrease in γ-Syn protein expression”. Besides, in [14] (50 μM DMI), the “γ-Syn protein expression decreased” value is more than 85%. Besides, the cell death in [15] (each compound used alone) was approximately 15%; in data set [15] (γ-Syn expressing cells, 50 μM DMI, MTT) it was more than 90%; in data set [17] it was more than 60%. Further, the “cell death (in words)” value in data set [16] is “no cell death”. Moreover, the “γ-Syn expression (in words)” value in data set [18] is reported as “reduce γ-Syn expression”. Also, the depressive state entry in data set [19] was “relieves their depressive state”. The “expression levels of γ-Syn” value in [20] is “reduces expression levels of γ-Syn”. Besides, the cell viability in data set [21] (10 μM of either drug alone) is approximately 80%; in data set [21] (setting [22]), 58%; in data set [21] (T47D cells, 48 h, 50 μM DMI alone, MTT (data not shown)), approximately 5%.

Turning to `NNCCc1ccccc1` [phenelezine], the “mobility and climbing behaviors” value in [12] was “improvements in mobility and climbing behaviors”.

With `CC(=O)O[C@H]1C(=O)[C@@]2(C)[C@H]([C@H](OC(=O)c3ccccc3)[C@]3(O)C[C@H](OC(=O)[C@H](O)[C@@H](NC(=O)c4ccccc4)c4ccccc4)C(C)=C1C3(C)C)[C@]1(OC(C)=O)CO[C@@H]1C[C@@H]2O` [taxol, Paclitaxel], in data set [15] (each compound used alone), the cell death is given as approximately 15%. For the same compound, the values for the cell viability in data set [21] (10 μM of either drug alone) and in data set [21] (setting [22]) were approximately 80% and 52%, respectively. In addition, in data set [21] (T47D cells expressing γ-Syn), the “sensitivity of cells to taxol (in words)” value is recorded as “resistant to taxol treatment”.
